Experiments:
[1] = test system: scopolamine induced dry eye model; assay: Scopolamine induced dry eye model, tear fluorescein clearance (Example 3); assay type: in vivo, rat; conditions: single topical instillation of 1% on day eight; measured day thirteen
Description: Dry eye was induced using scopolamine (Sigma-Aldrich, St. Louis, Mo.), which was continuously and systemically delivered to the animals via an osmotic pump (2ML4 Alzet®; CedarLane, Burlington, Ontario) filled with scopolamine and implanted subcutaneously in the mid dorsal area between the scapulae. The wound was closed with 2-3 wound clips. After the surgery and again the next day, the animals were subcutaneously injected with Carprofen (0.5 mg/100 g) a non-steroidal anti-inflammatory drug and potent, long-acting analgesic in rodents. Animals were anaesthetized before the surgical pump implantation and before all clinical endpoint testing in an Isofluorane 99.9% USP (Abraxis Bioscience, Richmond Hill, Ontario) chamber. […]
Tear fluorescein clearance was evaluated as described for humans (Afonso, A A. et al., “Correlation of Tear Fluorescein Clearance and Schirmer Test Scores with Ocular Irritation Symptoms,” Ophthalmology 106:803-810 (1999), the entire content of which is incorporated herein by reference) and modified for rats (Chen, W. et al., “Keratoconjunctivitis Sicca Modifies Epithelial Stem Cell Proliferation Kinetics in Conjunctiva,” Cornea 26:1101-1106 (2007), the entire content of which is incorporated herein by reference). […] The length of cotton wetting in mm determined the volume of the collected tear fluid. […]

naïve rats = assay: Tear mucin production in naïve rats following topical instillation, ELLA (Example 4); assay type: in vivo, rat
Description: Dose-ranging studies were conducted on the topical instillations of compound D3 in stimulating mucin production in naïve rats. Thirty male sprague dawley rats were divided into five groups of six rats per group and were treated bilaterally once every hour for six consecutive hours with either saline, 0.4% of compound D3, 1.0% of compound D3, 2.5% of compound D3 and 0.00053% of NGF. Once anesthetized, each animal received a 5 μL topical instillation of test article into the lower conjunctival sac of both eyes using a calibrated micropipette.
Tear fluid washings from both eyes were pooled and were collected prior to treatment and following six hourly instillations of saline, compound D3 and NGF. All tear fluid washings were evaluated for mucin concentration by an enzyme-linked lectin assay (ELLA).
The mean and standard deviation (SD) were used to characterize the data. The differences in mucin concentration was calculated from treated minus baseline from groups of rats. Continuous mucin changes between two groups from baseline were evaluated using the paired t test. The mucin changes between more than two treatment groups were analyzed using an analysis of variance. The median mucin changes between treatment groups were compared against a theoretical median of zero using the […]. A two-sided test with P<0.05 was considered to be statistically significant. Statistical analysis were performed using GraphPad Prism 4.0C (GraphPad Software Inc., La Jolla, Calif.).

[2] = Maximum solubility in topical dosing solution; assay type: physicochemical; conditions: buffered saline ~pH 7, isotonic; 25.0 mg per mL solution
Description: Compound D3 was prepared using a formulation designed by Mimetogen Pharmaceuticals, which is buffered saline ˜pH 7 (as determined by pH indicator strips, EMD Chemicals). Three topical dosing solutions were prepared as follows: • A topical dosing solution of 0.4% was prepared using 4.0 mg of compound dissolved in 845 μL, of sterile milliQ water. The solution was adjusted to ˜pH 7 with 6.5 μL of 1.0 N NaOH (VWR) using pH indicator strips and made isotonic (0.9% NaCl) by adding 148.5 μL of sterile 1.0 M NaCl. • A topical dosing solution of 1.0% was prepared using 10.0 mg of compound dissolved in 845 μL of sterile milliQ water. […] The solution was adjusted to ˜pH 7 with 20 μL of 1.0 N NaOH. The solution was made isotonic by adding 135 μL of sterile 1.0 M NaCl. All solutions were sonicated for 5 min. All compound D3 solutions were stored refrigerated (2-8° C.) for the duration of the study.

[3] = Scopolamine induced rat dry eye model, body weights (Example 5); assay type: in vivo; conditions: ± SD
Description: After the surgery and again the next day, the animals were subcutaneously injected with Caprofen (0.5 mg/100 g) a non-steroidal anti-inflammatory drug and potent, long-acting analgesic in rodents. Animals were weighed prior to pump implantation on Day−1, and then once a week for four weeks. This dosing regimen was reported to induce dry eye in rats (Viau S et al., “Time course of ocular surface and lacrimal gland changes in a new scopolamine-induced dry eye model,” Graefes Arch Clin Exp Ophthalmol., 246:857-867 (2008), the entire content of which is incorporated herein by reference).
There were no mortalities. […] Conjunctival congestion and conjunctival bloody discharge usually resolved the next day, but conjunctival swelling continued throughout the study. Pre-treatment, mean body weight was approximately 400 g, and was not statistically different among groups (p=0.3927) (Table 10). Mean body weight in the untreated control groups (G1) increased to approximately 575 g throughout the study. In the five groups receiving scopolamine (G2-G6), mean body weight increased to approximately 425 to 450 g. There was a statistically significant effect of treatment to decrease body weight starting on Day 14, continuing through Day 28 (p<0.0001 to 0.0426) (FIG. 24).

[4] = 2.5%, 5 μL bilaterally once every hour for six hours

Row | Compound | aqueous tear turnover, fluorescein clearance (in words) [1] | mean changes in mucin concentration (in words) (naïve rats; 0.4%, 1.0%, 2.5%, six hourly instillations) | tear mucin concentration at baseline (naïve rats; 2.5% group, prior to treatment) | change in mucin concentration from baseline (naïve rats; [4]) | tear mucin concentration after treatment (naïve rats; [4]) | maximum solubility [2] | Body Weights ([3]; 0.00053% group, Day −1, pre-treatment) | Body Weights ([3]; scopolamine + 0.00053% topical 1× daily Days 5-21, Day 7) | Body Weights ([3]; scopolamine + 0.00053% topical 1× daily Days 5-21, Day 14) | Body Weights ([3]; scopolamine + 0.00053% topical 1× daily Days 5-21, Day 20) | Body Weights ([3]; scopolamine + 0.00053% topical 1× daily Days 5-21, Day 29)
1 | NCCCC[C@@H]1NC(=O)[C@H](CCC(=O)O)NC(=O)c2cc([N+](=O)[O-])ccc2OCCC(C(=O)NCC(=O)O)NC1=O (some centres unmarked) [Compound D3] | no effect on aqueous tear turnover | dose-dependent | 3.0 ± 1.9 ng/µL | 4.0 ± 3.5 ng/µL | 7.0 ± 4.5 ng/µL | 2.5% | – | – | – | – | –
2 | NGF: nerve growth factor (recombinant human), positive control | – | – | – | – | – | – | 417 ± 16 g | 396 ± 20 g | 399 ± 18 g | 417 ± 16 g | 438 ± 22 g

Reference: US9707267B2, “Beta-turn peptidomimetic cyclic compounds for treating dry eye” (Mimetogen Pharmaceuticals, Inc., priority 2008, dated 2017)
